Series [1] is described as follows: AUC(0 to infinity) in mouse at 10 mg/kg, po. Conditions: in vivo. Type of series: ADME, organism-based. Also noted: dose 10 mg/kg, route po.
A short description of series [2]: Cmax in mouse at 10 mg/kg, po. Type of series: ADME, organism-based. Also noted: dose 10 mg/kg, route po. To be noted: in vivo.
A short description of series [3]: Oral bioavailability in mouse at 50 mg/kg. Type of series: ADME, organism-based. To be noted: in vivo.
In series [4] the test system is Plasmodium berghei. Put plainly: Antiplasmodial activity against Plasmodium berghei ANKA infected in mouse assessed as mean survival days at 50 mg/kg, po administered for 4 days and measured upto 30 days. Conditions: time 4 day. Type of series: functional.
For the next series, the system named is HepG2. Put plainly: Cytotoxicity against human HepG2 cells after 48 hrs by CellTiter Glo assay. It counts as toxicity, cell-based. To be noted: hepg2, 48 h.
Series [5] is described as follows: Volume of distribution in mouse at 3 mg/kg, iv. Conditions: in vivo. It counts as ADME, organism-based.
Series [6] in a line: Apparent half life in mouse at 50 mg/kg, po. Type of series: ADME, organism-based. To be noted: in vivo, read-out: t1/2(app) (converted).
A short description of series [7]: Cytotoxicity against CHO cells measured after 48 hrs by MTT assay. To be noted: Chinese hamster. For orientation: Formazan colour is commonly taken as a measure of viable cells.
The nature of series [8]: AUC(0 to infinity) in mouse at 50 mg/kg, po. It counts as ADME, organism-based. Also noted: dose 50 mg/kg, route po. To be noted: in vivo.
Series [9] is described as follows: Tmax in mouse at 10 mg/kg, po. Type of series: ADME, organism-based. To be noted: in vivo.
A short description of series [10]: Cmax in mouse at 50 mg/kg, po. Type of series: ADME, organism-based. Also noted: dose 50 mg/kg, route po. To be noted: in vivo.
Series [11] can be described thus: Oral bioavailability in mouse at 10 mg/kg. Type of series: ADME, organism-based. Conditions: in vivo.
A short description of series [12]: Apparent half life in mouse at 3 mg/kg, iv. Type of series: ADME, organism-based. Conditions: in vivo, read-out: t1/2(app) (converted).
Series [13] is described as follows: AUC(0 to infinity) in mouse at 3 mg/kg, iv. It counts as ADME, organism-based. Also noted: dose 3 mg/kg, route iv. Conditions: in vivo.
Series [14] in a line: Apparent half life in mouse at 10 mg/kg, po. Conditions: in vivo, read-out: t1/2(app) (converted). It counts as ADME, organism-based.
The next series has as its system Hemozoin. Put plainly: Inhibition of Beta-hematin in Plasmodium falciparum NF54 assessed as hemozoin formation after 36 hrs by flow cytometry analysis. A general note: In flow cytometry, cells or beads pass a laser one at a time.
Series [15] in a line: Intrinsic clearance in mouse at 3 mg/kg, iv. Type of series: ADME, organism-based. Conditions: in vivo.
A short description of series [16]: Tmax in mouse at 50 mg/kg, po. Conditions: in vivo. It counts as ADME, organism-based.
The test system of series [17] is Plasmodium falciparum. In words: microbe, parasite or virus in culture. Conditions: NF54, 72 h.
The nature of series [18]: Selectivity index, ratio of IC50 for Plasmodium falciparum NF54 to IC50 for CHO cells. To be noted: hamster.
A short description of a further series: physchem. Conditions: buffer, pH 7.4.
In series [19] the test system is Plasmodium falciparum. In words: Antiplasmodial activity against multidrug resistant Plasmodium falciparum K1 incubated for 72 hrs by microplate reader assay. Type of series: functional, organism-based. Conditions: K1, 72 h.
In series [20] the test system is Plasmodium berghei. In words: Antiplasmodial activity against Plasmodium berghei ANKA infected in mouse assessed as reduction in parasitemia at 50 mg/kg, po administered for 4 days. It counts as functional. Set-up: scale not given: the % may be the effect or the level left. To be noted: time 4 day.
The test system of series [21] is Plasmodium berghei. In words: Antiplasmodial activity against liver stage Plasmodium berghei ANKA sporozoites expressing GFP infected in HepG2 cells pre-infected with cells for 1 hr prior to compound addition and measured after 48 hrs by flow cytometry analysis.
Series [22] relates to Plasmodium falciparum. In words: Antiplasmodial activity against early stage (I to III) Plasmodium falciparum incubated for 48 hrs by bioluminescence assay. Type of series: functional, organism-based.
Series [23] deals with Plasmodium falciparum. Put plainly: Antiplasmodial activity against Plasmodium falciparum assessed as reduction in parasite viability incubated for 72 hrs by LDH assay. Type of series: functional, organism-based.
Series [24] is described as follows: Drug accumulation in mitochondria of human erythrocytes infected with chloroquine sensitive Plasmodium falciparum NF54 by live cell imaging analysis. Type of series: ADME. Conditions: erythrocyte.
In series [25] the test system is Plasmodium falciparum. Put plainly: Antiplasmodial activity against chloroquine sensitive Plasmodium falciparum NF54 infected in human erythrocytes incubated for 48 hrs followed by addition of [3H]-hypoxanthine and measured after 24 hrs by beta-plate liquid scintillation counting method. Type of series: functional, organism-based.
A short description of series [26]: Drug accumulation in nucleus of human erythrocytes infected with chloroquine sensitive Plasmodium falciparum NF54 by live cell imaging analysis. It counts as ADME, subcellular. Conditions: erythrocyte.
Series [27] is described as follows: Drug accumulation in endoplasmic reticulum of human erythrocytes infected with chloroquine sensitive Plasmodium falciparum NF54 by live cell imaging analysis. It counts as ADME, subcellular. To be noted: erythrocyte.
Series [28] concerns Plasmodium falciparum. Put plainly: Antiplasmodial activity against multidrug resistant Plasmodium falciparum K1 infected in human erythrocytes incubated for 48 hrs followed by addition of [3H]-hypoxanthine and measured after 24 hrs by beta-plate liquid scintillation counting method. Type of series: functional, organism-based.
Series [29] in a line: Drug accumulation in lysosomes of human erythrocytes infected with chloroquine sensitive Plasmodium falciparum NF54 by live cell imaging analysis. Type of series: ADME, cell-based. Conditions: erythrocyte.
Series [30] can be described thus: Drug accumulation in neutral lipid droplets of human erythrocytes infected with chloroquine sensitive Plasmodium falciparum NF54 by live cell imaging analysis. Type of series: ADME, cell-based. Conditions: erythrocyte.
Series [31] can be described thus: Drug accumulation in hemozoin crystal of human erythrocytes infected with chloroquine sensitive Plasmodium falciparum NF54 by live cell imaging analysis. It counts as ADME, cell-based. Conditions: erythrocyte.

Data on five molecules can be found in ChEMBL document CHEMBL5236628 (J Med Chem, 2022).

Each structure is given as a SMILES string. ≈ marks a conversion by molar mass, not a printed value. Calls of active or inactive are those of the source. The calls are words filed in the database; no cut-off is given here.

For orientation: Cmax means the maximum level reached in the sampled fluid or tissue. As a reminder, the bioavailability is dose-corrected exposure relative to a reference, in per cent. In general, Vd refers to the apparent volume that relates the amount in the body to the concentration in plasma or blood. The term IC50 denotes the midpoint of a concentration-inhibition curve. One may read the Tmax as the time at which the peak concentration occurs. The term kinetic solubility denotes the concentration staying in solution when a stock, usually in DMSO, is diluted into the medium.

On to `FC(F)(F)c1noc(-c2ccc(CCN3CCC(Nc4nc5ccccc5[nH]4)CC3)cc2)n1`, for which the AUC came to 48 µM/min in series [1], 1429 µM/min in series [8] and 93.4 µM/min in [13]. Further, the Cmax was 0.3 µM in series [2] and 1.5 µM in series [10]. For the same molecule, the bioavailability in series [3] stood at 93.3%; in series [11], 15.6%. The MSD in the series with Plasmodium berghei [4] turned out to be 14 days. The Activity entry in the series on HepG2 is “Non-Toxic”. The molecule further yielded a Vd in [5] of 26.6 L/kg. Besides, the values for the half-life in [6], in series [12] and in [14] were 10.2 h, 4.2 h and 1.1 h, respectively. In series [7] (cho), this molecule came in with an IC50 at 48 h of 1.96 µM. For the same molecule, the time of peak concentration (Tmax) in [9] amounted to 0.7 h; in series [16] it was 1.7 h. In the series on Hemozoin, the inhibition entry was “inactive”. In addition, the CL in [15] turned out to be 4.3 L/h/kg.
For the molecule `Cc1noc(-c2ccc(CCN3CCC(Nc4nc5ccccc5[nH]4)CC3)cc2)n1`, the AUC in series [1] was 535 µM/min; in series [8] it was 5548 µM/min; in series [13], 550 µM/min. Further, the Cmax came to 1 µM in [2] and 5.9 µM in series [10]. Besides, the figures for the bioavailability in series [3] and in series [11] were 61% and 29.3%, respectively. The values for the IC50 in the series on Plasmodium falciparum [17] and in the series with Plasmodium falciparum [19] were 0.055 µM and 0.176 µM, respectively. Also, the selectivity ratio in [18] came out at 64.7. For the same molecule, the Vd in [5] was 13.6 L/kg. Besides, in “physchem”, the kinetic solubility at 2 h is 80 µM (≈ 32.2 µg/mL). For the same molecule, the half-life in [6] was 9.2 h; in [12], 11.6 h; in series [14], 10.3 h. It took 3.56 µM to reach half-maximal inhibition in series [7] (CHO cells) (IC50 at 48 h). The Tmax worked out at 1.5 h in series [9] and 3 h in series [16]. The Activity in the series on Plasmodium berghei [20] is given as 40%. This molecule displayed a CL in series [15] of 0.996 L/h/kg.
`Cn1c(NC2CCN(CCc3ccc(-c4nc(C(F)(F)F)no4)cc3)CC2)nc2ccccc21`: the IC50 came out at 0.066 µM with Plasmodium falciparum [17], 0.21 µM in the series with Plasmodium berghei [21], 0.048 µM in the series with Plasmodium falciparum [19] and 1.67 µM in the series on Plasmodium falciparum [22]. Also, the MSD with Plasmodium berghei [4] worked out at 9 days. Besides, the Activity result in the series with HepG2 is on record as “Non-Toxic”; in the series on Plasmodium berghei [20], 90%. This molecule showed an IC50 at 48 h in series [7] (cho) of 3.18 µM.
For the molecule `COc1ccc(CCN2CCC(Nc3nc4cc(Cl)c(Cl)cc4[nH]3)CC2)cc1`, the IC50 in the series on Plasmodium falciparum [23] is 0.083 µM.
Consider `O=[N+]([O-])c1ccc(NCCn2c(NC3CCN(CCc4ccc(-c5nc(C(F)(F)F)no5)cc4)CC3)nc3ccccc32)c2nonc12`, for which the Drug uptake entry is “Active” in [24]; “Not Active” in [26]; “Active” in series [27]; “Active” in series [29]; “Active” in [30]; “Active” in series [31]. Besides, the IC50 was 0.14 µM with Plasmodium falciparum [25] and 0.37 µM in the series on Plasmodium falciparum [28]. The molecule further gave a solubility (kinetic) at 2 h in “physchem” of 120 µM (≈ 79.5 µg/mL).
